Columns and labels:
[1] = target: T1, Cbl (aa49-434) (Homo sapiens, UniProt P22681); assay: Co-expressed Cbl with BirA biochemical assay (CBL/E2-Ub binding, HTRF); settings: 0.6 nM Cbl co-expressed with BirA, read-out: co-express CBL/E2-Ub-binding assay IC50
T1 construct: Cbl (aa49-434, in-house); made in house
T1 sequence (P22681 49-434): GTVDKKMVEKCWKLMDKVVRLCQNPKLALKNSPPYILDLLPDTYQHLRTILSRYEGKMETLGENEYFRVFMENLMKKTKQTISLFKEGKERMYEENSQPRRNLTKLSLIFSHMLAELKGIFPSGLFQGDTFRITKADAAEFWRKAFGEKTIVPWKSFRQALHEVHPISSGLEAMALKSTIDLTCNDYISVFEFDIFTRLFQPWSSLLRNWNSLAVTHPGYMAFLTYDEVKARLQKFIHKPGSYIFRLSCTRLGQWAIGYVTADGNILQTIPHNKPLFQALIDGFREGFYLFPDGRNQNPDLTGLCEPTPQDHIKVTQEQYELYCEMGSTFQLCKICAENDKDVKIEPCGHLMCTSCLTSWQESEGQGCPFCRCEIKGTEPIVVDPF
Source text: (§1) The assay in the absence of a Cbl-b/Cbl inhibitor, where phosphorylation of Cbl-b/Cbl by the Src kinase allows UbcH5B-Ub to bind to Cbl-b/Cbl and brings the Bodipy-Fluorescein tagged ubiquitin in proximity to the streptavidin-terbium bound to the N-terminal biotinylated Avi-tagged Cbl-b/Cbl. […] The lack of a FRET signal indicates Cbl-b/Cbl is inhibited by the Cbl-b/Cbl inhibitor.

[2] = target: T2, Cbl-b (aa36-427) (Homo sapiens, UniProt Q13191); assay: Co-expressed Cbl-b with BirA biochemical assay (CBLB/E2-Ub binding, HTRF); settings: 0.6 nM Cbl-b co-expressed with BirA, HTRF; read-out: co-express CBLB/E2-Ub-binding assay IC50
T2 construct: Cbl-b (aa36-427, in-house); made in house
Source text: as §1

T2 sequence (Q13191 36-427): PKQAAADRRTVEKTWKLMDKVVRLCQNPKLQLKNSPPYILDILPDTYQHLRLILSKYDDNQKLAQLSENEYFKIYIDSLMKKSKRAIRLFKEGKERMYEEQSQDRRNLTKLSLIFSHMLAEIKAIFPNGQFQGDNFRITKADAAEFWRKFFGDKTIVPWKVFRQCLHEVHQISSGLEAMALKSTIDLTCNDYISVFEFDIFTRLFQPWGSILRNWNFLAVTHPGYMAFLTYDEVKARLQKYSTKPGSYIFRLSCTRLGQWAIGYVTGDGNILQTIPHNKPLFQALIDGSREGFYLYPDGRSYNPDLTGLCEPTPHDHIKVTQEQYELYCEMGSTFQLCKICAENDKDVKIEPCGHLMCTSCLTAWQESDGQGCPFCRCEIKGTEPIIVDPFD

| SMILES | IC50 [1] | IC50 [2] |
| --- | --- | --- |
| Cn1cnnc1[C@]1(c2cncc(NC(=O)c3cc(CNC4(C)CCC4)c4[nH]cc(F)c4n3)c2)C[C@H](C)C1 [Compound B49, 3-fluoro-N-(5-((1s, 3s)-3-methyl-1-(4-methyl-4H-1,2,4-triazol-3-yl)cyclobutyl)pyridin-3-yl)-7-(((1-methylcyclobutyl)amino)methyl)-1H-pyrrolo[3,2-b]pyridine-5-carboxamide] | 14 nM | 3.2 nM |
| Cn1cnnc1[C@]1(c2cccc(NC(=O)c3cc(CNC4(C)CCC4)c4c(n3)C(C)(C)CN4)c2)C[C@H](CC#N)C1 [Compound C21, N-(3-((1s, 3s)-3-(cyanomethyl)-1-(4-methyl-4H-1,2,4-triazol-3-yl)cyclobutyl)phenyl)-3,3-dimethyl-7-(((1-methylcyclobutyl)amino)methyl)-2,3-dihydro-1H-pyrrolo[3,2-b]pyridine-5-carboxamido] | 17.7 nM | 1.8 nM |
| C[C@H]1CCCN(Cc2cc(C(=O)Nc3cccc(C4(Cc5nncn5C)COC4)c3)nn3cccc23)C1 [Compound B12, N-(3-{3-[(4-methyl-1,2,4-triazol-3-yl)methyl]oxetan-3-yl}phenyl)-4-{[(3S)-3-methylpiperidin-1-yl]methyl}pyrrolo[1,2-b]pyridazine-2-carboxamide] | 51.6 nM | 23.9 nM |
| Cn1cnnc1[C@]1(c2cccc(NC(=O)c3cc(CNC4(C)CC4)cn4ccnc34)c2)C[C@@H](C)C1 [Compound A90, N-(3-((1r, 3r)-3-methyl-1-(4-methyl-4H-1,2,4-triazol-3-yl)cyclobutyl)phenyl)-6-(((1-methylcyclopropyl)amino)methyl)imidazo[1,2-a]pyridine-8-carboxamide] | 3.2 nM | 0.5 nM |
| Cn1cnnc1CC1(c2cccc(NC(=O)c3cc(CN4CCCC(C(F)(F)F)C4)c4[nH]ccc4n3)c2)COC1 (stereo not shown) [Compound B9, N-(3-(3-((4-methyl-4H-1,2,4-triazol-3-yl)methyl)oxetan-3-yl)phenyl)-7-((3-(trifluoromethyl)piperidin-1-yl)methyl)-1H-pyrrolo[3,2-b]pyridine-5-carboxamide] | 42.9 nM | 25.9 nM |
| Cn1cnnc1[C@]1(c2cncc(NC(=O)c3cc(CNC4(C)CC4)c4ccsc4n3)c2)C[C@H](C)C1 [Compound B51, N-(5-((1s, 3s)-3-methyl-1-(4-methyl-4H-1,2,4-triazol-3-yl)cyclobutyl)pyridin-3-yl)-4-(((1-methylcyclopropyl)amino)methyl)thieno[2,3-b]pyridine-6-carboxamide] | 13 nM | 1.4 nM |
| C[C@H](NCc1cc(C(=O)Nc2cccc([C@]3(c4nncn4C)C[C@@H](C)C3)c2)c2ncc(Cl)n2c1)C1CCC1 [Compound A69, 3-chloro-6-((((S)-1-cyclobutylethyl)amino)methyl)-N-(3-((1s,3R)-3-methyl-1-(4-methyl-4H-1,2,4-triazol-3-yl)cyclobutyl)phenyl)imidazo[1,2-a]pyridine-8-carboxamide] | 1.7 nM | 0.8 nM |
| C[C@H]1CCCN(Cc2cc(C(=O)Nc3cccc([C@]4(c5nncn5C)C[C@@H](CC#N)C4)c3)nc3cc[nH]c23)C1 [Compound B5, N-(3-((1s,3R)-3-(cyanomethyl)-1-(4-methyl-4H-1,2,4-triazol-3-yl)cyclobutyl)phenyl)-7-(((S)-3-methylpiperidin-1-yl)methyl)-1H-pyrrolo[3,2-b]pyridine-5-carboxamide] | 16 nM | 1.6 nM |
| Cn1cnnc1[C@]1(c2cncc(NC(=O)c3cc(CNCC4CCC4)c4c(n3)C(F)(F)CC4)c2)C[C@H](C)C1 [Compound C52, 4-{[(cyclobutylmethyl)amino]methyl}-7,7-difluoro-N-{5-[(1r, 3s)-3-methyl-1-(4-methyl-1,2,4-triazol-3-yl)cyclobutyl]pyridin-3-yl}-5H,6H-cyclopenta[b]pyridine-2-carboxamide] | 14.8 nM | 3.3 nM |
| CC(C)CNCc1cc(C(=O)Nc2cncc([C@]3(c4nncn4C)C[C@@H](C)C3)c2)nc2cc[nH]c12 [Compound B2, 7-((isobutylamino)methyl)-N-(5-((1s, 3s)-3-methyl-1-(4-methyl-4H-1,2,4-triazol-3-yl)cyclobutyl)pyridin-3-yl)-1H-pyrrolo[3,2-b]pyridine-5-carboxamide] | 4.7 nM | 1.8 nM |
| C[C@H]1CCCN(Cc2cc(C(=O)Nc3cccc([C@]4(c5nncn5C)C[C@@H](C)C4)c3)nc3cc[nH]c23)C1 [Compound B4, N-(3-((1s,3R)-3-methyl-1-(4-methyl-4H-1,2,4-triazol-3-yl)cyclobutyl)phenyl)-7-(((S)-3-methylpiperidin-1-yl)methyl)-1H-pyrrolo[3,2-b]pyridine-5-carboxamide] | 12 nM | 3 nM |
| Cc1cnc2c(C(=O)Nc3cccc([C@]4(c5nncn5C)C[C@@H](C)C4)c3)cc(CN[C@@H](C)C3CC3)cn12 [Compound A59, 6-((((S)-1-cyclopropylethyl)amino)methyl)-3-methyl-N-(3-((1s,3R)-3-methyl-1-(4-methyl-4H-1,2,4-triazol-3-yl)cyclobutyl)phenyl)imidazo[1,2-a]pyridine-8-carboxamide] | 5.3 nM | 1.7 nM |
| Cn1cnnc1C[C@]1(c2cccc(NC(=O)c3cc(CNCC4(C)CCCC4)c4[nH]ccc4n3)c2)C[C@H](C#N)C1 [Compound B23, N-(3-((1r, 3r)-3-cyano-1-((4-methyl-4H-1,2,4-triazol-3-yl)methyl)cyclobutyl)phenyl)-7-((((1-methylcyclopentyl)methyl)amino)methyl)-1H-pyrrolo[3,2-b]pyridine-5-carboxamide] | 8.8 nM | 3.6 nM |
| Cn1cnnc1[C@]1(c2cccc(NC(=O)c3cc(CNC4(C)CC4)c4[nH]ccc4n3)c2)C[C@H](CC#N)C1 [Compound B26, N-(3-((1s, 3s)-3-(cyanomethyl)-1-(4-methyl-4H-1,2,4-triazol-3-yl)cyclobutyl)phenyl)-7-(((1-methylcyclopropyl)amino)methyl)-1H-pyrrolo[3,2-b]pyridine-5-carboxamide] | 4.1 nM | 1.3 nM |
| C[C@H]1CCCN(Cc2cc(C(=O)Nc3cccc([C@]4(c5nncn5C)C[C@@H](CC#N)C4)c3)nc3sccc23)C1 [Compound B18, 4-{[(3S)-3-methylpiperidin-1-yl]methyl}-N-{3-[(1s, 3s)-3-(cyanomethyl)-1-(4-methyl-1,2,4-triazol-3-yl)cyclobutyl]phenyl}thieno[2,3-b]pyridine-6-carboxamide] | 13 nM | 1.6 nM |
| Cn1cnnc1[C@]1(c2cncc(NC(=O)c3cc(CNCC4CCC4)c4[nH]ccc4n3)c2)C[C@H](C)C1 [Compound B40, 7-{[(cyclobutylmethyl)amino]methyl}-N-{5-[(1r, 3s)-3-methyl-1-(4-methyl-1,2,4-triazol-3-yl)cyclobutyl]pyridin-3-yl}-1H-pyrrolo[3,2-b]pyridine-5-carboxamide] | 2.1 nM | 1 nM |
| Cc1cnc2c(C(=O)Nc3cccc([C@]4(c5nncn5C)C[C@@H](CC#N)C4)c3)cc(CN3CC[C@H](F)[C@H](C)C3)cn12 [Compound A47, N-(3-((1s,3S)-3-(cyanomethyl)-1-(4-methyl-4H-1,2,4-triazol-3-yl)cyclobutyl)phenyl)-6-(((3R,4S)-4-fluoro-3-methylpiperidin-1-yl)methyl)-3-methylimidazo[1,2-a]pyridine-8-carboxamide] | 7 nM | 1.4 nM |

From patent US20250163047A1, “HETEROCYCLIC COMPOUNDS, COMPOSITIONS THEREOF, AND METHODS OF TREATMENT THEREWITH” (BeiGene, Ltd., priority 2022, published 2025)
